Values after ≈ are worked out from the molar mass of the structure shown. Where two headings read alike, the source gives them in different places. Where a SMILES comes first, the peptide text is derived from it.

The source of these data is PMC5453931, “Cathelicidin-trypsin inhibitor loop conjugate represents a promising antibiotic candidate with protease stability” (Scientific Reports, 2017).

Format in all cases: cell-based
In assay [1] the test system is B. subtilis. As to conditions: 18 h. Here is the method: (§1) A two-fold broth microdilution method described in our previous paper was used to determine the antimicrobial activities of parental and hybrid peptides. More than 30 strains including Gram-negative bacteria, Gram-positive bacteria and fungi were used in the current assay, in which the standard strains were stored in our lab and the clinical strains were collected from local hospitals. Briefly, bacteria were incubated in Mueller-Hinton broth (MH broth) at 37 °C to exponential phase and diluted to 10^6 CFU/mL. A serial dilution of peptide sample were prepared in 96-well microtiter plates (50 μL) and mixed with equal volume of microbial inoculums (50 μL). The plate was slowly shaken in the microbial incubator, and measured at A595 after incubation at 37 °C for 18 h. The minimal concentrations at which no microbial growth occurred were recorded as MIC (minimal inhibitory concentration) values. The traditional antibiotic ampicillin was used as positive control. The results are shown in an average of the MICs obtained from three independent experiments.

Assay [2] deals with C. albican. As to conditions: 18 h. The procedure:
as §1

Assay [3] has as its system E. coli. To be noted: 18 h. Here is the method: as §1
Assay [4] relates to P. aeruginosa. As to conditions: 18 h. Here is the method:
as §1

The test system of assay [5] is P. mirabilis. To be noted: 18 h. The procedure:
as §1

Assay [6] has as its system S. aureus. As to conditions: 18 h. The procedure: as §1
The test system of assay [7] is S. dysenteria. As to conditions: two-fold broth microdilution, MH broth, 37 °C, 18 h, A595; mean of three independent experiments in duplicate. The procedure: as §1
In general terms: Broth dilution looks for growth in wells or tubes with falling amounts of substance.

[8] abbreviates: two-fold broth microdilution, MH broth, 37 °C, A595, mean of three independent experiments in duplicate.

Consider `CC(C)C[C@H](NC(=O)[C@H](CCCNC(=N)N)NC(=O)[C@H](CCCCN)NC(=O)[C@H](Cc1ccccc1)NC(=O)[C@H](Cc1ccccc1)NC(=O)[C@@H](N)CCCCN)C(=O)N[C@@H](CC(C)C)C(=O)N[C@@H](CCCCN)C(=O)N[C@@H](CO)C(=O)N[C@H](C(=O)N[C@@H](CCCNC(=N)N)C(=O)N[C@@H](CCCNC(=N)N)C(=O)N[C@@H](C)C(=O)N[C@H](C(=O)N[C@@H](CCCCN)C(=O)N[C@@H](CCCCN)C(=O)N[C@@H](Cc1ccccc1)C(=O)N[C@@H](CCCNC(=N)N)C(N)=O)C(C)C)C(C)C` [Hc2] (H-KFFKRLLKSVRRAVKKFR-NH2), for which the “MIC B. subtilis” value in assay [1] turned out to be 18.75 µg/mL (≈ 8.13 µM). In addition, the “MIC C. albican” value in assay [2] is reported as 9.38 µg/mL (≈ 4.07 µM). Further, in assay [3], the “MIC E. coli” value was determined as 9.38 µg/mL (≈ 4.07 µM). In addition, in assay [4], the “MIC P. aeruginosa” value was determined as 9.38 µg/mL (≈ 4.07 µM). The “MIC P. mirabilis” value in assay [5] turned out to be 9.38 µg/mL (≈ 4.07 µM). In addition, the “MIC S. aureus” value in assay [6] stood at 9.38 µg/mL (≈ 4.07 µM). Also, the “MIC S. dysenteria” value in assay [7] came out at 2.34 µg/mL (≈ 1.01 µM).
As to `CC(C)C[C@H](NC(=O)[C@H](CCCNC(=N)N)NC(=O)[C@H](CCCCN)NC(=O)[C@H](Cc1ccccc1)NC(=O)[C@H](Cc1ccccc1)NC(=O)[C@@H](N)CCCCN)C(=O)N[C@@H](CC(C)C)C(=O)N[C@@H](CCCCN)C(=O)N[C@@H](CO)C(=O)N[C@H](C(=O)N[C@@H](CCCNC(=N)N)C(=O)N[C@@H](CCCNC(=N)N)C(=O)N[C@@H](C)C(=O)N[C@H](C(=O)N[C@@H](CCCCN)C(N)=O)C(C)C)C(C)C` [Hc5] (H-KFFKRLLKSVRRAVK-NH2), the “MIC B. subtilis” value in assay [1] amounted to 150 µg/mL (≈ 80 µM). For the same compound, the “MIC C. albican” value in assay [2] turned out to be 37.5 µg/mL (≈ 20 µM). Moreover, the “MIC E. coli” value in assay [3] worked out at 37.5 µg/mL (≈ 20 µM). Also, the “MIC P. aeruginosa” value in assay [4] is given as 75 µg/mL (≈ 40 µM). In assay [5], the “MIC P. mirabilis” value stood at 18.75 µg/mL (≈ 10 µM). Besides, the “MIC S. aureus” value in assay [6] amounted to 37.5 µg/mL (≈ 20 µM). Further, the “MIC S. dysenteria” value in assay [7] is reported as 4.69 µg/mL (≈ 2.5 µM).
With `CC(C)C[C@H](NC(=O)[C@H](CCCNC(=N)N)NC(=O)[C@H](CCCCN)NC(=O)[C@H](Cc1ccccc1)NC(=O)[C@H](Cc1ccccc1)NC(=O)[C@@H](N)CCCCN)C(=O)N[C@@H](CC(C)C)C(=O)N[C@@H](CCCCN)C(=O)N[C@@H](CO)C(=O)N[C@H](C(=O)N[C@@H](CCCNC(=N)N)C(=O)N[C@@H](CCCNC(=N)N)C(=O)N[C@@H](C)C(=O)N[C@H](C(N)=O)C(C)C)C(C)C` [Hc6] (H-KFFKRLLKSVRRAV-NH2), in assay [1], the “MIC B. subtilis” value came to 150 µg/mL (≈ 85.9 µM). Besides, in assay [2], the “MIC C. albican” value was 75 µg/mL (≈ 42.9 µM). The “MIC E. coli” value in assay [3] is given as 75 µg/mL (≈ 42.9 µM). The “MIC P. aeruginosa” value in assay [4] is recorded as 150 µg/mL (≈ 85.9 µM). Besides, the “MIC P. mirabilis” value in assay [5] stood at 37.5 µg/mL (≈ 21.5 µM). The “MIC S. aureus” value in assay [6] is reported as 75 µg/mL (≈ 42.9 µM). For the same compound, the “MIC S. dysenteria” value in assay [7] is on record as 18.75 µg/mL (≈ 10.7 µM).
In the case of `CC[C@H](C)[C@H](NC(=O)[C@H](CC(C)C)NC(=O)[C@H](CCCNC(=N)N)NC(=O)[C@@H]1CCCN1C(=O)[C@H](CCCCN)NC(=O)[C@H](CCCCN)NC(=O)[C@H](CCCNC(=N)N)NC(=O)[C@H](Cc1ccccc1)NC(=O)[C@H](CCCCN)NC(=O)[C@H](CCCCN)NC(=O)[C@@H](NC(=O)[C@H](C)NC(=O)[C@H](CCCNC(=N)N)NC(=O)[C@H](CCCNC(=N)N)NC(=O)[C@@H](NC(=O)[C@H](CO)NC(=O)[C@H](CCCCN)NC(=O)[C@H](CC(C)C)NC(=O)[C@H](CC(C)C)NC(=O)[C@H](CCCNC(=N)N)NC(=O)[C@H](CCCCN)NC(=O)[C@H](Cc1ccccc1)NC(=O)[C@H](Cc1ccccc1)NC(=O)[C@@H](N)CCCCN)C(C)C)C(C)C)C(=O)NCC(=O)N[C@@H](CC(C)C)C(=O)N[C@@H](CO)C(=O)N[C@H](C(=O)N[C@@H](CC(C)C)C(=O)N[C@@H](CC(C)C)C(=O)O)[C@@H](C)O` [Hc-CATH, reference compound] (H-KFFKRLLKSVRRAVKKFRKKPRLIGLSTLL-OH), the “MIC B. subtilis” value in assay [1] (setting [8]) was determined as 75 µg/mL (≈ 20.7 µM). In assay [2] (setting [8]), the “MIC C. albican” value was 4.69 µg/mL (≈ 1.29 µM). Further, the “MIC E. coli” value in assay [3] (setting [8]) is reported as 2.34 µg/mL (≈ 0.645 µM). In addition, in assay [4] (setting [8]), the “MIC P. aeruginosa” value was 18.75 µg/mL (≈ 5.17 µM). For the same compound, in assay [5] (setting [8]), the “MIC P. mirabilis” value is reported as 4.69 µg/mL (≈ 1.29 µM). Besides, the “MIC S. aureus” value in assay [6] (setting [8]) was determined as 4.69 µg/mL (≈ 1.29 µM). Further, in assay [7], the “MIC S. dysenteria” value stood at 0.59 µg/mL (≈ 0.163 µM).
